As a reminder, the EC50 is the concentration giving half of the maximal effect. Higher therefore signals weaker potency.

T1 sequence (Q86WV6 whole entry R71H/G230A/H232R/R293Q): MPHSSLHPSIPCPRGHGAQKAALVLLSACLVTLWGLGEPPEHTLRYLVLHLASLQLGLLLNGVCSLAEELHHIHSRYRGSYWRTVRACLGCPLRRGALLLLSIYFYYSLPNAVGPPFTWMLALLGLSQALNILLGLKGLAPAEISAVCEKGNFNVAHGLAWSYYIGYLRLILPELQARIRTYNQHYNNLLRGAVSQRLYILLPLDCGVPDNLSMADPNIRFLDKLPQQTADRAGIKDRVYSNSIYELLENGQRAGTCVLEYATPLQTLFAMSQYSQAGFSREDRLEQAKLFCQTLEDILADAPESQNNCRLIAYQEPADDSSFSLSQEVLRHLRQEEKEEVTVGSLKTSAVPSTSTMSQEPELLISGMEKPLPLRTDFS

This assay addresses T1, hSTING (Homo sapiens, UniProt Q86WV6, G230A/H232R/R293Q/R71H).
T1 construct: host or cells: THP1-Dual KO-IFNAR2 cells
Kind of assay: STING reporter assay (luciferase) in THP1-Dual KO-IFNAR2 cells stimulated with 2′3′cGAMP. It is filed as cell-based. The settings on record: 15 μM 2′3′cGAMP transfected, 24 h, luciferase reporter activity. As for the experimental part:
STING pathway activation by the compounds described herein was measured using THP1-Dual™ cells (KO-IFNAR2).
THP1-Dual™ KO-IFNAR2 Cells (obtained from invivogen) were maintained in RPMI, 10% FCS, 5 ml P/S, 2 mM L-glut, 10 mM Hepes, and 1 mM sodium pyruvate. Compounds were spotted in empty 384 well tissue culture plates (Greiner 781182) by Echo for a final concentration of 0.0017-100 μM. Cells were plated into the TC plates at 40 μL per well, 2×10E6 cells/mL. For activation with STING ligand, 2′3′cGAMP (MW 718.38, obtained from Invivogen), was prepared in Optimem media.
The following solutions were prepared for each 1×384 plate: • Solution A: 2 mL Optimem with one of the following stimuli: • 60 μL of 10 mM 2′3′cGAMP→150 μM stock • Solution B: 2 mL Optimem with 60 μL Lipofectamine 2000→Incubate 5 min at RT
2 mL of solution A and 2 ml Solution B was mixed and incubated for 20 min at room temperature (RT). 20 μL of transfection solution (A+B) was added on top of the plated cells, with a final 2′3′cGAMP concentration of 15 μM. The plates were then centrifuged immediately at 340 g for 1 minute, after which they were incubated at 37° C., 5% CO2, >98% humidity for 24 h. Luciferase reporter activity was then measured. EC50 values were calculated by using standard methods known in the art.
Luciferase reporter assay: 10 μL of supernatant from the assay was transferred to white 384-plate with flat bottom and squared wells. One pouch of QUANTI-Luc™ Plus was dissolved in 25 mL of water. 100 μL of QLC Stabilizer per 25 mL of QUANTI-Luc™ Plus solution was added. 50 μL of QUANTI-Luc™ Plus/QLC solution per well was then added. Luminescence was measured on a Platereader (e.g., Spectramax I3X (Molecular Devices GF3637001)).
Luciferase reporter activity was then measured. EC50 values were calculated by using standard methods known in the art.
(In general: Reporter assays use an easily measured gene product as a stand-in for the process of interest.)
As for `Cc1nc(CC(=O)Nc2c[nH]c3ccc(-c4cnn(-c5ccc(C(F)(F)F)cc5)c4)cc23)cs1` [Compound 165, 2-(2-methylthiazol-4-yl)-N-(5-(1-(4-(trifluoromethyl)phenyl)-1H-pyrazol-4-yl)-1H-indol-3-yl)acetamide], the EC50 is 200 to 1000 nM.

In the case of `O=C(CN1CCCC1=O)Nc1c[nH]c2ccc(-c3cnn(-c4ccc(C(F)(F)F)cc4)c3)cc12` [Compound 166, 2-(2-oxopyrrolidin-1-yl)-N-(5-(1-(4-(trifluoromethyl)phenyl)-1H-pyrazol-4-yl)-1H-indol-3-yl)acetamide], the EC50 lay within 1000 to 5000 nM.

The molecule `O=C(CCN1CCOC1=O)Nc1c[nH]c2ccc(-c3cnn(-c4ccc(C(F)(F)F)cc4)c3)cc12` [Compound 167, 3-(2-oxooxazolidin-3-yl)-N-(5-(1-(4-(trifluoromethyl)phenyl)-1H-pyrazol-4-yl)-1H-indol-3-yl)propanamide] came in with an EC50 of 200 to 1000 nM.

On to `Cn1ccc(CC(=O)Nc2c[nH]c3ccc(-c4cnn(-c5ccc(C(F)(F)F)cc5)c4)cc23)n1` [Compound 168, 2-(1-methyl-1H-pyrazol-3-yl)-N-(5-(1-(4-(trifluoromethyl)phenyl)-1H-pyrazol-4-yl)-1H-indol-3-yl)acetamide], for which the EC50 is 200 to 1000 nM.

The values are drawn from US20220024906A1, “COMPOUNDS AND COMPOSITIONS FOR TREATING CONDITIONS ASSOCIATED WITH STING ACTIVITY” (IFM Due, Inc., priority 2020, published 2022).
